In publication PMC6150237, “Study of Absorption Characteristics of the Total Saponins from Radix Ilicis Pubescentis in an In Situ Single-Pass Intestinal Perfusion (SPIP) Rat Model by Using Ultra Performance Liquid Chromatography (UPLC)” (Molecules : A Journal of Synthetic Chemistry and Natural …, 2017):
“Also recorded” adds a separate entry of the source.

What was measured:
rat duodenum = assay: SPIP of MDQ-TS with or without verapamil (P-gp inhibitor); type: in vivo; conditions: MDQ-TS 2.5 mg/mL, verapamil 200 μmol·L^−1
Procedure: (§1) MDQ-TS perfusion samples at low, middle, and high concentration levels of 1.25, 2.5, and 5.0 mg·mL^−1 were prepared by separately dissolving MDQ-TS in the minimum amount of DMSO and diluted with K-R buffer solution. The amount of DMSO was 0.5% in the final perfusion solutions. C1, C2, C3, C4, DC1, and DC2 perfusion samples with the concentration equivalent to the amount contained in 2.5 mg·mL^−1 of MDQ-TS were individually prepared in the same way. Verapamil, amantadine and EDTA were directly dissolved in the MDQ-TS perfusate with terminal concentrations of 200 μmol·L^−1, 2.5 mmol·L^−1, and 2.5 mmol·L^−1, accordingly, and used for investigating the mechanisms involved for absorption.
(§2) In situ single-pass intestinal perfusion (SPIP) studies were performed using an experimental design adapted from the literature with some modifications. Briefly, male Sprague-Dawley rats weighing 180–220 g were acclimatized for at least one week before the experiment, and fasted for 18 h with free access to water before the perfusion experiment. Rats were anesthetized with an intraperitoneal injection of urethane (30 mg·kg^−1 body weight), and kept on a homeothermic blanket to maintain normal body temperature. The abdomen was opened with a midline longitudinal incision, and three segments of rat intestine (duodenum, jejunum, and ileum) of approximately 10 cm each were carefully cannulated on two ends with plastic tubing. Initially, the perfusion solution free of drug (37 °C) was pumped by peristaltic pump (BT100-1F, Longer Pump Co., Baoding, China) through the cannulated segments at a flow rate of 1 mL/min for approximately 30 min in order to clean out any residual debris. Secondly, the perfusion solution containing a known concentration of substance (C1, C2, C3, C4, DC1, DC2, and MDQ-TS) was perfused at 37 °C through the intestinal lumen at a constant flow rate of 0.2 mL/min. The first 20 min of period corresponds to steady state, i.e., when the substance is in equilibrium with the intestinal membrane. After steady state, samples were collected from distal portion of duodenum, jejunum and ileum at 10 min intervals (0–10, 10–20, 20–30, 30–40, 40–50, 50–60 min) in pre-weighted vials. Samples were immediately frozen at −20 °C until analysis by validated UPLC. During the experiment, care was taken to avoid disturbance of the circulatory system and the exposed segment was covered with a piece of sterilized gauze to keep it warm and moist by frequent application of warm (37 °C) saline. The intestinum tenue maintained its viability and intact state without disrupting the blood supply throughout the experimental period. Finally, animals were sacrificed after depth anesthesia by intraperitoneal injection of urethane, according to protocols for euthanasia in experimental animals. After death, the intestinal segment was removed for measurements of length and inside diameter.
The net water flux in the in situ perfusion studies (water absorption and efflux in the intestinal segment) was determined by gravimetric method. The effective absorption rate constant (Ka) and effective apparent permeability (Papp) of compounds in the intestinal segments were calculated according to the following mathematical expression:(1) Ka=(1−CoutQout/CinQin)Q/V (2) Papp=−Qln(CoutQout/CinQin)/2πrl where Cin and Cout are the concentration of test drug in the effluent perfusate through the inlet and outlet tube (μg·mL^−1), respectively. Qin and Qout represent the inlet and outlet volume of effluent perfusate (mL), respectively. Q is the volume flow rate of perfusion (mL·h^−1). V is the volume of the intestinal segment concerned (mL). 2πrl is the area of the mass transfer surface of intestinal segment concerned (cm^2). […]

[1] = Apparent oil-water partition coefficient, shake-flask method; type: physicochemical; conditions: n-octanol / phosphate buffer pH 1.2-9.0, 37 °C; Kow = log Co/(Ct−Co)
Procedure: The equilibrium partitioning of C1, C2, C3, C4, DC1, and DC2 between organic lipid and water (Kow) was determined in our study by the traditional shake-flask method (SFM). Briefly, 0.5 mL of each saponin standard working solution (100 µg·mL^−1 in water-saturated n-octanol) was accurately measured into 5 mL centrifuge tubes, and spiked with 0.5 mL of different phosphate buffer solutions (pH: 1.2, 2.0, 3.6, 5.8, 6.8, 7.4, 7.8, and 9.0), respectively. After vortex-mixing for 45 min, the tubes were kept in a temperature-stable horizontal shaking bath (37 °C) for 24 h, and then centrifuged at 13,000 rpm for 10 min. Two hundred microliters of organic supernatant solution was measured, diluted with 800 µL of methanol, and mixed well. Ten microliters of the final solution was injected into the HPLC system (detailed experimental conditions and method validation results were not shown) for determination of the drug concentration in the n-octanol phase. The Kow values of the six saponins were calculated according to the following mathematical expression:(3) Kow=logCo/Ct−Co where Ct is the total concentration of the drug, and Co is the concentration of the drug in n-octanol phase.

[2] = tested on: rat small intestine (duodenum, jejunum, ileum); assay: In situ single-pass intestinal perfusion (SPIP), saponins administrated in MDQ-TS form; type: in vivo
Procedure: as §1, §2
(§3) The net water flux in the in situ perfusion studies (water absorption and efflux in the intestinal segment) was determined by gravimetric method. The effective absorption rate constant (Ka) and effective apparent permeability (Papp) of compounds in the intestinal segments were calculated according to the following mathematical expression:(1) Ka=(1−CoutQout/CinQin)Q/V (2) Papp=−Qln(CoutQout/CinQin)/2πrl where Cin and Cout are the concentration of test drug in the effluent perfusate through the inlet and outlet tube (μg·mL^−1), respectively. Qin and Qout represent the inlet and outlet volume of effluent perfusate (mL), respectively. Q is the volume flow rate of perfusion (mL·h^−1). V is the volume of the intestinal segment concerned (mL). 2πrl is the area of the mass transfer surface of intestinal segment concerned (cm^2).

[3] = tested on: rat small intestine (duodenum, jejunum, ileum); assay: In situ single-pass intestinal perfusion (SPIP), saponins administrated in monomer forms; type: in vivo; parameters: key to Papp / Ka: -: no absorption; conditions: monomer form; for Ka / Papp: symbol
Procedure: as §1, §2, §3

[4] = MDQ-TS form 1.25 mg·mL^−1, duodenum, n = 5
[5] = MDQ-TS form 1.25 mg·mL^−1, ileum, n = 5
[6] = MDQ-TS form 1.25 mg·mL^−1, jejunum, n = 5
[7] = MDQ-TS form 2.5 mg·mL^−1, duodenum, n = 5
[8] = MDQ-TS form 2.5 mg·mL^−1, ileum, n = 5
[9] = MDQ-TS form 2.5 mg·mL^−1, jejunum, n = 5
[10] = MDQ-TS form 5.0 mg·mL^−1, duodenum, n = 5
[11] = MDQ-TS form 5.0 mg·mL^−1, ileum, n = 5
[12] = MDQ-TS form 5.0 mg·mL^−1, jejunum, n = 5

In the case of ilexsaponin B3 [DC1], the “Ka increase in comparison with non-Verapamil added group” value (rat duodenum) is reported as roughly 2.9 fold, the “Papp increase in comparison with non-Verapamil added group” value (rat duodenum) is reported as roughly 3.4 fold and the “apparent oil-water partition coefficient (Kow)” value [1] is reported as −1 to 2. For the same substance, the Ka [2, 4] was 0.56 ± 0.17 ×10^−2 min^−1, the Papp [2, 4] was 0.13 ± 0.05 ×10^−2 cm·min^−1 and the Ka [2, 5] was 0.59 ± 0.35 ×10^−2 min^−1. The Papp [2, 5] was 0.22 ± 0.13 ×10^−2 cm·min^−1, the Ka [2, 6] was 0.46 ± 0.21 ×10^−2 min^−1 and the Papp [2, 6] was 0.23 ± 0.15 ×10^−2 cm·min^−1. The Ka [2, 7] was 1.76 ± 0.44 ×10^−2 min^−1, the Papp [2, 7] was 0.34 ± 0.08 ×10^−2 cm·min^−1 and the Ka [2, 8] was 1.65 ± 0.33 ×10^−2 min^−1. The Papp [2, 8] was 0.16 ± 0.07 ×10^−2 cm·min^−1, the Ka [2, 9] was 1.99 ± 0.49 ×10^−2 min^−1 and the Papp [2, 9] was 0.35 ± 0.08 ×10^−2 cm·min^−1. For the same substance, the Ka [2, 10] was 1.53 ± 0.55 ×10^−2 min^−1, the Papp [2, 10] was 0.30 ± 0.13 ×10^−2 cm·min^−1 and the Ka [2, 11] was 1.21 ± 0.58 ×10^−2 min^−1. For the same substance, the Papp [2, 11] was 0.21 ± 0.11 ×10^−2 cm·min^−1, the Ka [2, 12] was 2.05 ± 0.72 ×10^−2 min^−1 and the Papp [2, 12] was 0.32 ± 0.19 ×10^−2 cm·min^−1. The Papp ([2]; administrated in MDQ-TS form, summary bound (except DC2 in 1.25 mg·mL^−1 MDQ-TS group)) was greater than 0.0012 cm/min, the Ka ([3]; duodenum) was “-” and the Papp ([3]; duodenum) was “-”. For the same substance, the Ka ([3]; ileum) was “-”, the Papp ([3]; ileum) was “-” and the Ka ([3]; jejunum) was “-”. The Papp ([3]; jejunum) was “-” and the “intestinal absorption of monomers” value ([3]; small intestine, result in words) was “could not be absorbed by small intestine at all; also recorded: no absorption; also recorded: could not be absorbed by the gastrointestinal tract at all”.
